Reference: patent US10449186B2, “Phenylethynyl-substituted benzenes and heterocycles for the treatment of cancer” (UNIVERSITY OF KENTUCKY RESEARCH FOUNDATION, priority 2017, dated 2019)
Structures can show the parent of a compound that is named as a salt. Where two headings read alike, the source gives them in different places.

How the values were obtained:
[1] = tested on: LS174T colon cancer cells; assay: LS174T cell proliferation assay; format: cell-based; design: effects on LS174T colon cancer cell proliferation (Table 3): unit not given here; settings: for inhibition at 1 µM / inhibition at 0.1 µM / inhibition at 10 µM: Homo sapiens, LS174T
Experimental: Cell proliferation assay. LS174T cells were grown in RPMI medium (Mediatech) supplemented with 5% fetal bovine serum and 1% penicillin/streptomycin. For cell proliferation assays, 3×10^4 cells/well growing in 12-well plates were treated with DMSO or inhibitors. The cell numbers and viability were analyzed by Vi-Cell Cell Viability Analyzer after 4 days. The IC50 values were calculated with GraphPad Prim 5.

[2] = read-out: inhibition of LS174T colon cancer cell proliferation
[3] = read-out: inhibition of cell proliferation (%) of colon cancer LS174T cells
[4] = Table 1, 1 μM, read-out: inhibition of proliferation (%) of colon cancer LS174T cells
[5] = Table 1, 10 μM, read-out: inhibition of proliferation (%) of colon cancer LS174T cells
[6] = Table 2, 100 nM, read-out: inhibition of cell proliferation (%) of colon cancer LS174T cells
[7] = Table 2, 1 μM, read-out: inhibition of cell proliferation (%) of colon cancer LS174T cells
[8] = Table 2, 10 μM, read-out: inhibition of cell proliferation (%) of colon cancer LS174T cells

Compound	melting point [°C]	inhibition at 1 µM [1, 3] [%]	inhibition at 10 µM [1, 3] [%]	other results
Fc1cccc(F)c1C#Cc1ccc(-n2cccc2)nc1 [Compound 5c, 5-((2,6-Difluorophenyl)ethynyl)-2-(1H-pyrrol-1-yl)pyridine]	121 to 123	80.5 ± 6.6	95.3 ± 0.8	inhibition at 1 µM [1, 2]: > 75%; inhibition at 0.1 µM [1, 3]: 0%
Nc1ncc(C#Cc2c(F)cccc2F)c2ccccc12 [Compound 5mm, 4-((2,6-Difluorophenyl)ethynyl)isoquinolin-1-amine]	200 to 201	86.2 ± 1.6	93.1 ± 1.6	inhibition at 0.1 µM [1, 3]: 35.5 ± 1.7%
CN1CCN(c2ccc(C#Cc3c(F)cccc3F)cc2)CC1 [Compound 4c, 1-(4-((2,6-Difluorophenyl)ethynyl)phenyl)-4-methylpiperazine]	126 to 128	–	–	inhibition at 1 µM [1, 4]: 19.9%; inhibition at 10 µM [1, 5]: 99.6%
CN(C)c1ccnc2ccc(C#Cc3c(F)cccc3F)cc12 [Compound 5ff, 6-((2,6-Difluorophenyl)ethynyl)-N,N-dimethylquinolin-4-amine]	118 to 120	81.3 ± 1.4	95.5 ± 2	inhibition at 1 µM [1, 2]: > 75%; inhibition at 0.1 µM [1, 3]: 0%
Fc1cccc(F)c1C#Cc1cc2ccccc2nc1Cl [Compound 5p, 2-Chloro-3-((2,6-difluorophenyl)ethynyl)quinoline]	137 to 138	28.4 ± 10.5	85.1 ± 6.2	–
Fc1cccc(F)c1C#Cc1cccc2[nH]ncc12 [Compound 5g, 4-((2,6-Difluorophenyl)ethynyl)-1H-indazole]	178 to 179	19.8 ± 13.6	96.2 ± 2	–
CNc1ccc(C#Cc2c(F)cncc2F)cc1 [Compound 7c, 4-((3,5-Difluoropyridin-4-yl)ethynyl)-N-methylaniline]	149 to 151	–	–	effects on LS174T colon cancer cell proliferation (Table 3) ([1]; 30 nM): 20.3; effects on LS174T colon cancer cell proliferation (Table 3) ([1]; 100 nM): 49.5; effects on LS174T colon cancer cell proliferation (Table 3) ([1]; 300 nM): 62.6
CN(C)c1ccc(C#Cc2c(F)cccc2F)nc1 [Compound 5a, 6-((2,6-Difluorophenyl)ethynyl)-N,N-dimethylpyridin-3-amine]	120 to 122	–	–	inhibition at 0.1 µM [1, 6]: 15.1 ± 7.4%; inhibition at 1 µM [1, 7]: 68.9 ± 1.3%; inhibition at 10 µM [1, 8]: 85.2 ± 3.8%
Nc1ccc2ncc(C#Cc3c(F)cccc3F)cc2c1 [Compound 5r, 3-((2,6-Ditfluorophenyl)ethynyl)quinolin-6-amine]	–	–	–	inhibition of cell proliferation (%) of colon cancer LS174T cells ([1]; Table 2, 10 μM): 9.2 ± 15.7%
Fc1cccc(F)c1C#Cc1ccc2cncnc2c1 [Compound 5rr, 7-((2,6-Difluorophenyl)ethynyl)quinazoline]	166 to 168	–	–	inhibition at 1 µM [1, 7]: 33.8 ± 4.8%; inhibition at 10 µM [1, 8]: 96.3 ± 0.8%
Fc1cccc(F)c1C#Cc1cnc2c(F)cccc2c1 [Compound 5t, 3-((2,6-Difluorophenyl)ethynyl)-8-fluoroquinoline]	136 to 137	63.6 ± 8.4	89.1 ± 8.2	inhibition at 0.1 µM [1, 3]: 8.8 ± 5.1%
Fc1cccc(F)c1C#Cc1ccc2[nH]ccc2c1 [Compound 5e, 5-((2,6-Difluorophenyl)ethynyl)-1H-indole]	131 to 133	–	–	inhibition at 1 µM [1, 7]: 52.9 ± 5.9%; inhibition at 10 µM [1, 8]: 91.5 ± 3.5%
Nc1ccnc2cc(C#Cc3c(F)cccc3F)ccc12 [Compound 5dd, 7-((2,6-Difluorophenyl)ethynyl)quinolin-4-amine]	219 to 221	–	–	inhibition at 1 µM [1, 7]: 23.6 ± 2.5%; inhibition at 10 µM [1, 8]: 97.7 ± 2.2%
Fc1cccc(F)c1C#Cc1ccc2cnccc2c1 [Compound 5jj, 6-((2,6-difluorophenyl)ethynyl)isoquinoline]	97 to 99	–	–	inhibition at 1 µM [1, 7]: 11.6 ± 21.3%; inhibition at 10 µM [1, 8]: 82.4 ± 10.2%
Fc1cccc(F)c1C#Cc1ccc2c(Cl)ccnc2c1 [Compound 5bb, 4-Chloro-7-((2,6-difluorophenyl)ethynyl)quinoline]	148 to 150	–	–	inhibition at 1 µM [1, 7]: 23.1 ± 8.3%; inhibition at 10 µM [1, 8]: 70.8 ± 4.8%
Nc1ccc(C#Cc2c(F)cncc2F)cc1 [Compound 7b, 4-((3,5-Difluoropyridin-4-yl)ethynyl)aniline]	156 to 158	–	–	effects on LS174T colon cancer cell proliferation (Table 3) ([1]; 30 nM): 11.4; effects on LS174T colon cancer cell proliferation (Table 3) ([1]; 100 nM): 30.5; effects on LS174T colon cancer cell proliferation (Table 3) ([1]; 300 nM): 36.2
Fc1cccc(F)c1C#Cc1ccc(N2CCOCC2)cc1 [Compound 4b, 4-(4-((2,6-Difluorophenyl)ethynyl)phenyl)morpholine]	144 to 145	–	–	inhibition at 1 µM [1, 4]: 13%; inhibition at 10 µM [1, 5]: 32.1%

Compound	melting point [°C]	inhibition at 1 µM [1, 3] [%]	inhibition at 10 µM [1, 3] [%]	other results
Fc1ccc2ccnc(C#Cc3c(F)cccc3F)c2c1 [Compound 5ll, 1-((2,6-Difluorophenyl)ethynyl)-7-fluoroisoquinoline]	177 to 178	71.1 ± 3.5	96.2 ± 0.1	inhibition at 0.1 µM [1, 3]: 0%
Cn1ncc2cc(C#Cc3c(F)cccc3F)ccc21 [Compound 5j, 5-((2,6-difluorophenyl)ethynyl)-1-methyl-1H-indazole]	107 to 109	–	–	inhibition at 0.1 µM [1, 6]: 0%; inhibition at 1 µM [1, 7]: 58.4 ± 9.6%; inhibition at 10 µM [1, 8]: 94.6 ± 3.5%
Fc1cccc(F)c1C#Cc1ccc(-n2cccc2)cc1 [Compound 4d, 1-(4-((2,6-Difluorophenyl)ethynyl)phenyl)-1H-pyrrole]	122 to 124	–	–	activity in a cell proliferation assay ([1]; 100 nM): considerably diminished activity; activity in a cell proliferation assay ([1]; 1 μM): comparable to 4-((2,6-difluorophenyl)ethynyl)-N,N-dimethylaniline (2); inhibition at 0.1 µM ([1]; Table 1, 100 nM, read-out: inhibition of proliferation (%) of colon cancer LS174T cells): 11%; inhibition at 1 µM [1, 4]: 77.5%; inhibition at 10 µM [1, 5]: 96.7%
Fc1cccc(F)c1C#Cc1ccc2[nH]ncc2c1 [Compound 5h, 5-((2,6-Difluorophenyl)ethynyl)-1H-indazole]	193 to 195	17.6 ± 7.9	82.9 ± 9.8	–
Fc1cccc(F)c1C#Cc1ccc2nccc(Cl)c2c1 [Compound 5aa, 4-Chloro-6-((2,6-difluorophenyl)ethynyl)quinoline]	120 to 122	–	–	inhibition at 1 µM [1, 7]: 43.8 ± 10.8%; inhibition at 10 µM [1, 8]: 89.7 ± 4.3%
CN(C)c1ccc2cc(C#Cc3c(F)cccc3F)ccc2n1 [Compound 5ee, 6-((2,6-Difluorophenyl)ethynyl)-N,N-dimethylquinolin-2-amine]	142 to 144	2 ± 11.9	38.7 ± 4.3	–
Fc1cccc(F)c1C#Cc1ccc2ccccc2n1 [Compound 5m, 2-((2,6-Difluorophenyl)ethynyl)quinoline]	127 to 129	67.3 ± 13.6	93.8 ± 1.7	inhibition at 0.1 µM [1, 3]: 6.1 ± 27%
CN1CCN(c2ncc(C#Cc3c(F)cccc3F)c3ccccc23)CC1 (as salt: hydrochloride) [Compound 5pp, 4-((2,6-Difluorophenyl)ethynyl)-1-(4-methylpiperazin-1-yl)isoquinoline]	70 to 72	–	–	–
Cc1ccc(C)n1-c1ccc(C#Cc2c(F)cccc2F)cc1 [Compound 4e, 1-(4-((2,6-Difluorophenyl)ethynyl)phenyl)-2,5-dimethyl-1H-pyrrole]	124 to 126	–	–	inhibition at 1 µM [1, 4]: 20.9%; inhibition at 10 µM [1, 5]: 78.8%
Fc1cccc(F)c1C#Cc1cnc2ccccc2c1 [Compound 5n, 3-((2,6-Difluorophenyl)ethynyl)quinoline]	115 to 117	41.7 ± 6.5	90.4 ± 1	inhibition at 0.1 µM [1, 3]: 0%
Fc1ccc2cc(C#Cc3c(F)cccc3F)cnc2c1 [Compound 5s, 3-((2,6-Difluorophenyl)ethynyl)-7-fluoroquinoline]	142 to 143	69.4 ± 4.5	95.1 ± 1.6	inhibition at 0.1 µM [1, 3]: 14.8 ± 5.5%
CN(C)c1ccc(C#Cc2c(F)cncc2F)cc1 [Compound 7d, 4-((3,5-Difluoropyridin-4-yl)ethynyl)-N,N-dimethylaniline]	–	–	–	effects on LS174T colon cancer cell proliferation (Table 3) ([1]; 30 nM): 16.7; effects on LS174T colon cancer cell proliferation (Table 3) ([1]; 100 nM): 20.4; effects on LS174T colon cancer cell proliferation (Table 3) ([1]; 300 nM): 60.6
Fc1cccc(F)c1C#Cc1cnc2[nH]ccc2c1 [Compound 5l, 5-((2,6-Difluorephenyl)ethynyl)-1H-pyrrolo[2,3-b]pyridine]	–	–	–	inhibition of cell proliferation (%) of colon cancer LS174T cells ([1]; Table 2, 1 μM): 17.3 ± 12.0%; inhibition of cell proliferation (%) of colon cancer LS174T cells ([1]; Table 2, 10 μM): 77.9 ± 8.9%
Fc1cccc(F)c1C#Cc1cnc(Cl)c2ccccc12 [Compound 5kk, 1-Chloro-4-((2,6-difluorophenyl)ethynyl)isoquinoline]	145 to 146	48.1 ± 18.1	94 ± 0.5	inhibition at 0.1 µM [1, 3]: 0.8 ± 36.1%
Fc1cccc(F)c1C#Cc1ccc2nc(Cl)ccc2c1 [Compound 5z, 2-Chloro-6-((2,6-difluorophenyl)ethynyl)quinoline]	137 to 138	21.2 ± 11.4	63.3 ± 2.3	–
Cn1ccc2cc(C#Cc3c(F)cccc3F)ccc21 [Compound 5f, 5-((2,6-Difluorophenyl)ethynyl)-1-methyl-1H-indole]	–	–	–	inhibition at 1 µM ([1]; 1 μM, read-out: inhibition of LS174T colon cancer cell proliferation): > 75%; inhibition at 0.1 µM [1, 6]: 3 ± 5.6%; inhibition at 1 µM [1, 7]: 77.7 ± 13.6%; inhibition at 10 µM [1, 8]: 95.2 ± 1%
